Assay results taken from patent US9024017B2, “Octahydro-cyclopentapyrrolyl antagonists of CCR2” (Janssen Pharmaceutica NV, priority 2012, dated 2015).

These molecules were tested against T1, CCR2 (Homo sapiens, UniProt P41597) (assay: MCP-1 Receptor Binding Assay in THP-1 Cells). Settings: read-out: MCP1B_v3 IC50.
T1 construct: host or cells: THP-1 (human monocytic cell line)
T1 sequence (P41597 whole entry): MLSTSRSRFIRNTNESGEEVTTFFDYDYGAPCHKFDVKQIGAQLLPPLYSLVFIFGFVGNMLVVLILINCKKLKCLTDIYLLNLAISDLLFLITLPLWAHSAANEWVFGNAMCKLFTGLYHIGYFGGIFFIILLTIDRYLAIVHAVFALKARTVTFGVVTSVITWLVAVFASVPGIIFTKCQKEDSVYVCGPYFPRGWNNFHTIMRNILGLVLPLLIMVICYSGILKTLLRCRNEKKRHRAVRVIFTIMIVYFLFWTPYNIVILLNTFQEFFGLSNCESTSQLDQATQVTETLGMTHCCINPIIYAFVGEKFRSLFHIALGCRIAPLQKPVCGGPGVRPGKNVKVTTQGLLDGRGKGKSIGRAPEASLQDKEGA
Experimental: Compounds of the invention were subjected to various representative biological tests. […] MCP-1 Receptor Binding Assay in THP-1 Cells Human monocytic cell line THP-1 cells were obtained from American Type Culture Collection (Manassas, Va., USA). The THP-1 cells were grown in RPMI-1640 (RPMI: Roswell Park Memorial Institute Medium-cell culture growth media) supplemented with 10% fetal bovine serum in a humidified 5% CO2 atmosphere at 37° C. The cell density was maintained between […].
THP-1 (cells were incubated with 0.5 nM ^125I labeled MCP-1 (Perkin-Elmer Life Sciences, Inc. Boston, Mass.) in the presence of varying concentrations of either unlabeled MCP-1 (R & D Systems, Minneapolis, Minn.) or test compound for 2 hours at 30° C. in a 96 well plate. Cells were then harvested onto a filter plate, dried, and 20 μL of Microscint 20 was added to each well. Plates were counted in a TopCount NXT, Microplate Scintillation & Luminescence Counter (Perkin-Elmer Life Sciences, Inc. Boston, Mass.). Blank values (buffer only) were subtracted from all values and drug treated values were compared to vehicle treated values. 1 μM cold MCP-1 was used for nonspecific binding.
Work on `COC1COCCC1N[C@@H]1C[C@H]2CN(S(=O)(=O)CCc3ccccc3)C[C@@]2(C(=O)N2CCc3ncc(C(F)(F)F)cc3C2)C1` (relative stereo) [Example 93, ((3aR,5R,6aR)-5-(((3S*,4S*)-3-Methoxytetrahydro-2H-pyran-4-yl)amino)-2-(phenethylsulfonyl)octahydrocyclopenta[c]pyrrol-3a-yl)(3-(trifluoromethyl)-7,8-dihydro-1,6-naphthyridin-6(5H)-yl)methanone] yielded an IC50 of 0.98 µM.
`COC1COCCC1N[C@@H]1C[C@H]2CN(C(=O)Nc3ccccc3)C[C@@]2(C(=O)N2CCc3ncc(C(F)(F)F)cc3C2)C1` (relative stereo) [Example 16, (3aR,5R,6aR)-5-(((3S*,4S*)-(3-methoxytetrahydro-2H-pyran-4-yl)amino)-N-phenyl-3a-(3-(trifluoromethyl)-5,6,7,8-tetrahydro-1,6-naphthyridine-6-carbonyl)hexahydrocyclopenta-[c]pyrrole-2(1H)-carboxamide] was tested, and the IC50 was 0.47 µM.
In the case of `CCCOC(=O)N1C[C@@H]2C[C@@H](NC3CCOCC3OC)C[C@]2(C(=O)N2CCc3ncc(C(F)(F)F)cc3C2)C1` (relative stereo) [Example 35, (3aR,5R,6aR)-Propyl 5-(((3S*,4S*)-3-methoxytetrahydro-2H-pyran-4-yl)amino)-3a-(3-(trifluoromethyl)-5,6,7,8-tetrahydro-1,6-naphthyridine-6-carbonyl)hexahydro-cyclopenta[c]pyrrole-2(1H)-carboxylate], the IC50 is reported as 0.06 µM.
With `COC1COCCC1N[C@@H]1C[C@H]2CNC(=O)[C@@]2(C(=O)N2CCc3ncc(C(F)(F)F)cc3C2)C1` (relative stereo) [Example 119, (3aR,5R,6aR)-5-(((3S*,4S*)-3-Methoxytetrahydro-2H-pyran-4-yl)amino)-6a-(3-(trifluoromethyl)-5,6,7,8-tetrahydro-1,6-naphthyridine-6-carbonyl)hexahydrocyclopenta-[c]pyrrol-1(2H)-one] the IC50 was 12 µM.
Molecule `COC1COCCC1N[C@@H]1C[C@H]2CN(C3CC3)C[C@@]2(C(=O)N2CCc3ncc(C(F)(F)F)cc3C2)C1` (relative stereo) [Example 94, ((3aR,5R,6aR)-2-Cyclopropyl-5-(((3S*,4S*)-3-methoxytetrahydro-2H-pyran-4-yl)amino)octahydrocyclopenta[c]pyrrol-3a-yl)(3-(trifluoromethyl)-7,8-dihydro-1,6-naphthyridin-6(5H)-yl)methanone] has an IC50 of 0.18 µM.
Molecule `CO[C@@H]1COCC[C@@H]1N[C@@H]1C[C@H]2CN(C(=O)/C=C/c3cccc(C(=O)O)c3)C[C@@]2(C(=O)N2CCc3ccc(C(F)(F)F)cc3C2)C1` (relative stereo) [Example 90, 3-((E)-3-((3aR,5R,6aR)-5-(((3S*,4S*)-3-methoxytetrahydro-2H-pyran-4-yl)amino)-3a-(7-(trifluoromethyl)-1,2,3,4-tetrahydroisoquinoline-2-carbonyl)hexahydrocyclopenta-[c]pyrrol-2(1H)-yl)-3-oxoprop-1-en-1-yl)benzoic acid] has an IC50 of 0.01 µM.
Work on `COC1COCCC1N[C@@H]1C[C@H]2CN(C3COC3)C[C@@]2(C(=O)N2CCc3ccc(C(F)(F)F)cc3C2)C1` (relative stereo) [Example 100, ((3aR,5R,6aR)-5-(((3S*,4S*)-3-Methoxytetrahydro-2H-pyran-4-yl)amino)-2-(oxetan-3-yl)octahydrocyclopenta[c]pyrrol-3a-yl)(7-(trifluoromethyl)-3,4-dihydroisoquinolin-2(1H)-yl)methanone] yielded an IC50 of 0.03 µM.
For `COC1COCCC1N[C@@H]1C[C@H]2CN(C(=O)OCC(C)C)C[C@@]2(C(=O)N2CCc3ncc(C(F)(F)F)cc3C2)C1` (relative stereo) [Example 64, (3aR,5R,6aR)-Isobutyl 5-(((3S*,4S*)-3-methoxytetrahydro-2H-pyran-4-yl)amino)-3a-(3-(trifluoromethyl)-5,6,7,8-tetrahydro-1,6-naphthyridine-6-carbonyl)hexahydro-cyclopenta[c]pyrrole-2(1H)-carboxylate], the IC50 was 0.04 µM.
